The values that follow come from PMC4624771, “Oriented Cell Division in the C. elegans Embryo Is Coordinated by G-Protein Signaling Dependent on the Adhesion GPCR LAT-1” (PLoS Genetics, 2015).

The test system of one assay is lat-1(ok1465) nematodes. In words: Lethality rescue assay in lat-1 mutant nematodes. The class given is in vivo. To be noted: L4 larvae and subsequently embryos incubated; forskolin 80 μM, IBMX 10 mM, 8-Br-cAMP 0.25 mM. From the text:
Fig 2 Division plane defects in lat-1 mutant embryos are rescued by elevation of intracellular cAMP via a Gs protein/adenylyl cyclase pathway. […] In wild-type embryos treated with the RNAi control vector L4440 ABal divides in an anterior-posterior direction (A) whereas in treated lat-1 mutants the division plane is almost perpendicular to MS (B). gsa-1 RNAi by feeding over two generations leads to a turning of the F2 ABal division plane in a direction similar to that in lat-1 mutants (C). F2 lat-1; gsa-1(RNAi) embryos show a similar ABal division plane to lat-1 mutants (D). (E) Cell division plane angles of ABal relative to MS after knockdown of gsa-1. […] The vector L4440 served as negative control. Data are shown as means ± SD. * p < 0.05; *** p < 0.001; n ≥ 11. (F) cAMP levels are reduced in lat-1 embryos compared to a control wild-type population. cAMP levels were measured after lysis (15 μg protein) by cAMP accumulation assay. Assays were performed in three independent experiments, data are given as means ± SD. ** p < 0.01. (G) Rescue of developmental lethality in lat-1 nematodes treated with compounds promoting cAMP accumulation: forskolin (80 μM), IBMX (10 mM) and 8-Br-cAMP (0.25 mM). Mothers and subsequently offspring of wild-type and lat-1 individuals were incubated and individuals reaching adulthood were scored (n = 410). As controls, nematodes were incubated in solvent without drug (mock). Data are shown as means ± SD. * p < 0.05; ** p < 0.01; *** p < 0.001. (H) Forskolin increases cAMP levels in C. elegans embryos and adults. lat-1 mutants and subsequently embryos were incubated with 80 μM forskolin. […] As controls, nematodes were treated with 0.8% DMSO lacking forskolin (mock). Basal cAMP levels of mock control are: 0.70 ± 0.14 nM (wild-type embryos); 0.37 ± 0.19 nM (lat-1 embryos); 1.9 ± 0.7 nM (wild-type adults); 2.3 ± 0.8 nM (lat-1 adults). Assays were performed in three independent experiments, data are given as means ± SD. * p < 0.05; ** p < 0.01; *** p < 0.001. (I-L) Relative positions of ABala, ABalp, and MS in an AB^4 embryo. Schematic representation (top) and DIC microscopy (bottom), scale bars = 10 μm. In wild-type embryos (I) and embryos incubated in 80 μM forskolin for 120 minutes (K) ABal divides in an anterior-posterior direction with only ABalp forming an interface with MS. In lat-1 mutants the division plane is skewed resulting in ABala and ABalp contacting MS (J). lat-1 embryos treated with 80 μM forskolin for 120 minutes display wild-type division and cell interfaces (L). (M) Arrangement of blastomeres in the 12-cell stage embryo. […] The right-hand side is two views of the mean positions of the blastomeres. The spheres are enlarged to convey an impression of the contacts. Forskolin turns the ABal spindle in the mutant in a more anterior direction. (N) Cell division plane angles of ABal relative to MS of untreated wild-type/lat-1 controls and wild-type/lat-1 embryos after incubation of mothers and subsequently embryos for 48 hours in 80 μM forskolin. Upon forskolin treatment, mutant embryos display a wild-type division angle. As controls, nematodes were treated with 0.8% DMSO lacking forskolin (mock). Data are shown as average angles ± SD, *** p < 0.001; n ≥ 12. (O) Forskolin reduces the contact length of ABala to MS. Ratio of relative contact lengths of ABala to MS and ABalp to MS cells lat-1 embryos untreated (control, n = 10) and after incubation of mothers and subsequently embryos for 48 hours in 80 μM forskolin (n = 11). […] Data were calculated from pixel analyses utilizing DIC images and are shown as means ± SD, ** p < 0.01.
All compounds were obtained from Sigma Aldrich. Forskolin was dissolved in DMSO to 10 mM, 3-isobutyl-1-methylxanthine (IBMX) in Dent´s buffer to 10 mM, 8-bromoadenosine 3′,5′-cyclic monophosphate (8-Br-cAMP) in 1 N ammonium hydroxide to 250 mM and 2',5'-dideoxyadenosine (ddA) was diluted in DMSO to 100 mM prior to final dilution in Dent´s buffer. […]

The subject of the next assay is LAT-1. In words: Peptide-stimulated cAMP accumulation assay, lat-1-transfected COS-7 cells. The class given is cell-based, C. elegans. To be noted: 1 mM peptide; for agonistic activity at LAT-1 in vitro (cAMP levels), in words: lat-1-transfected COS-7 cells, cAMP accumulation assay. The source says: Fig 3 An agonistic sequence C-terminal of the GPS cleavage site activates LAT-1 in vitro. (A) Evolutionary conservation of the putative agonistic region C-terminal of the GPCR proteolytic site (GPS) cleavage site in different latrophilin homologs. The GPS is part of the GPCR-autoproteolysis inducing (GAIN) domain, a characteristic feature of most aGPCRs which is located N-terminal of the first transmembrane domain (TM1). Sequences were retrieved from NCBI/GenBank and aligned utilizing Jalview 2 [36]. (B, F) Peptide-stimulated cAMP response of LAT-1 (B) and rat LPHN1 (F). COS-7 cells transfected with 0.2 μg empty control vector (pcDps) or plasmid encoding the latrophilin homolog, respectively, were stimulated with 1 mM peptide and cAMP levels were measured by cAMP accumulation assay. A mutated peptide served as negative control (CMP12/RMP13). […] Basal cAMP levels (empty vector, no peptide) are 5.3 ± 1.3 nM. Data are given as means ± SD of five independent experiments, each performed in triplicate. * p < 0.05; ** p < 0.01. (C) LPHN1 is expressed in COS-7 cells. Cells were transfected with 500 ng/well of empty vector (pcDps) or plasmid encoding either rat LPHN1, human P2Y12, or human V2R. […] Expression of the human vasopressin type 2 receptor V2R is shown as a comparison. The non-specific OD value (empty vector) was 0.06 ± 0.03 (set 0%) and the OD value of P2Y12 was 1.28 ± 0.12 (set 100%). Data are given as means ± SD of at least three independent experiments. *** p < 0.001. […] To analyze functional Gi coupling, the chimeric Gαqi4 protein was applied to reroute a potential Gi-protein pathway to the […]. For each assay, 1.5 μg/well of plasmid encoding LPHN1 was transfected (for Gi-protein coupling, co-transfection with 100 ng of chimeric Gαqi4 protein was performed). No activation of any of the signaling pathway was observed. Basal IP levels are: 220 ± 34 CPM/well (empty vector); 234 ± 39 CPM/well (empty vector + Gαqi4). Data are given as means ± SD of three independent experiments, each performed in triplicate. n.s. not significant. (E) LPHN1 couples to Gαs. COS-7 cells were transfected with increasing amounts of empty control vector (pcDps) or plasmid encoding either rat LPHN1, human V2R or human P2Y12, and cAMP levels were measured after 48 hours. cAMP concentrations are shown as fold change over empty control vector, basal cAMP levels: 6.2 ± 2.3 nM (200 ng); 6.1 ± 2.5 nM (300 ng); 5.1 ± 2.6 nM (400 ng); 6.1 ± 4.5 nM (500 ng). The Gs-protein coupling V2R served as positive and the predominantly Gi-protein coupling P2Y12 as negative control. Data are given as means ± SD of three independent experiments, each performed in triplicate. *** p < 0.001.
For functional assays, COS-7 cells were transiently transfected. To determine total as well as cell surface expression of receptors carrying N-terminal HA and C-terminal FLAG tags, indirect cellular enzyme-linked immunosorbent assays (ELISA) were employed. cAMP concentrations were measured using the ALPHAScreen cAMP assay kit (PerkinElmer Life Sciences) according to the manufacturer's protocol. IP formation was determined as previously described. Assay data was analyzed with GraphPad Prism version 5.0 (GraphPad Software). Statistics were performed using a two-way ANOVA in combination with Bonferroni as post-hoc test. For details see Supporting Experimental Procedures.
COS-7 cells were grown in Dulbecco's Modified Eagle Medium (DMEM) supplemented with 10% fetal bovine serum, 100 U/ml penicillin and 100 μg/ml streptomycin at 37°C and 5% CO2 in a humidified atmosphere. […]

For assay [1], the system named is lat-1 mutant nematodes expressing lat-1 with a lat-2 GPS. As to the kind of experiment: Peptide-mediated rescue of lethality in lat-1 mutants expressing lat-1 with a lat-2 GPS. Format: in vivo, C. elegans. The following applies: mothers and subsequently offspring soaked in 0.1 mM peptide, n ≥ 350. The procedure: Fig 4 The agonistic sequence of LAT-1 triggers receptor function in vivo. (A) Domain architecture of LAT-1 with an exchange of the GPS for the LAT-2 GPS. (B) Peptide-mediated rescue of lethality in lat-1 mutant nematodes expressing lat-1 with a lat-2 GPS. Mothers and subsequently offspring were soaked in 0.1 mM of peptide and individuals reaching adulthood were scored (n ≥ 350). […] Negative controls: mutated peptide CMP12 and a peptide derived from rat LPHN1 (RP13). Data are shown as means ± SD, **p<0.01; ***p<0.001. (C) Transgenically expressed lat-1 ^T530A/F532A::gfp exclusively rescues fertility defects of lat-1 mutants. Nematodes expressing lat-1 ^T530A/F532A::gfp in a lat-1 mutant background display lethality but no fertility defects compared to a lat-1::gfp transgenic control. (D) Expression and protein localization of lat-1::gfp (top) is indistinguishable from lat-1 ^T530A/F532A::gfp (bottom). Arrows indicate expression.
All compounds were obtained from Sigma Aldrich. Forskolin was dissolved in DMSO to 10 mM, 3-isobutyl-1-methylxanthine (IBMX) in Dent´s buffer to 10 mM, 8-bromoadenosine 3′,5′-cyclic monophosphate (8-Br-cAMP) in 1 N ammonium hydroxide to 250 mM and 2',5'-dideoxyadenosine (ddA) was diluted in DMSO to 100 mM prior to final dilution in Dent´s buffer. Peptides were synthesized (see Supporting Experimental Procedures) and dissolved in DMSO to 100 mM prior to final dilution in M9. Worms were incubated in 80 μM forskolin, 10 mM IBMX, 0.25 mM 8-Br-cAMP, 1 mM ddA or 0.1 mM peptide solution, respectively, containing E. coli OP50.
The lethality rescue assay was conducted as previously described. Fifty L4 hermaphrodites were transferred into wells of a 72-well flat-bottom Terasaki plates (Greiner Bio-One) containing OP50 and allowed to lay eggs for 24 hours at 22°C. Five to ten eggs were transferred into fresh wells with corresponding solutions and incubated at 22°C. The number of dead/surviving embryos was scored 24 hours later, the number of adult animals 48 hours later on an inverted microscope. Data were examined with an unpaired two-tailed t test for each genotype and condition.

Turning to `Nc1ncnc2c1nc(Br)n2[C@@H]1O[C@@H]2COP(=O)(O)O[C@H]2[C@H]1O` [8-Br-cAMP, 8-bromoadenosine 3′,5′-cyclic monophosphate], the “effect on embryonic lethality of lat-1 worms, in words” value in the assay with lat-1(ok1465) nematodes is recorded as “amelioration of embryonic lethality”.

As to “CP10: peptide comprising the LAT-1 sequence C-terminal of the GPS cleavage site (THFAVLMDVR)”, in the assay on LAT-1, the “agonistic activity at LAT-1 in vitro (cAMP levels), in words” value (shortened to “agonistic activity at LAT-1 in vitro”) is recorded as “no agonistic activity in vitro”. Further, the “rescue of tissue polarity phenotype / activity in vivo, in words” value in assay [1] is listed as “not display any activity in vivo”.

On to “CP9: peptide comprising the LAT-1 sequence C-terminal of the GPS cleavage site (THFAVLMDV)”, for which the “agonistic activity at LAT-1 in vitro” value in the assay with LAT-1 was “no agonistic activity in vitro”. For the same compound, in assay [1], the “rescue of tissue polarity phenotype / activity in vivo, in words” value was “not display any activity in vivo”.

“CP12: peptide of 12 amino acids comprising the LAT-1 sequence C-terminal of the GPS cleavage site (THFAVLMDVRGH)”: the “increase of cAMP concentration above basal levels” value in the assay with LAT-1 (lat-1-transfected COS-7 cells (0.2 μg plasmid), ALPHAScreen cAMP assay, means of five independent experiments, each in triplicate) is reported as 1.6 fold. Besides, in the assay with LAT-1, the “agonistic activity at LAT-1 in vitro” value is “increased cAMP levels”. The “rescue of tissue polarity phenotype / activity in vivo, in words” value in assay [1] is “efficiently rescued”.

As for “CMP12: CP12-derived peptide with positions +1 (T530) and +3 (F532) mutated to alanine (AHAAVLMDVRGH)”, the “agonistic activity at LAT-1 in vitro” value in the assay with LAT-1 is reported as “did not display any activity”. The “rescue of tissue polarity phenotype / activity in vivo, in words” value in assay [1] is reported as “not display any activity in vivo”.

“CP14: peptide comprising the LAT-1 sequence C-terminal of the GPS cleavage site (THFAVLMDVRGHDL)”: the “agonistic activity at LAT-1 in vitro” value in the assay on LAT-1 is “no agonistic activity in vitro”. The “rescue of tissue polarity phenotype / activity in vivo, in words” value in assay [1] is reported as “not display any activity in vivo”.

For “CP13: peptide of 13 amino acids comprising the LAT-1 sequence C-terminal of the GPS cleavage site (THFAVLMDVRGHD)”, the “agonistic activity at LAT-1 in vitro” value with LAT-1 was “increased cAMP levels”. In addition, the “rescue of lethality (individuals reaching adulthood)” value in assay [1] (means ± SD, untreated controls 26 ± 7%) is reported as 46 ± 12%. In addition, the “rescue of tissue polarity phenotype / activity in vivo, in words” value in assay [1] is listed as “efficiently rescued”.

As for `CC(C)Cn1c(=O)n(C)c(=O)c2[nH]cnc21` [IBMX, 3-isobutyl-1-methylxanthine], in the assay on lat-1(ok1465) nematodes, the “effect on embryonic lethality of lat-1 worms, in words” value was “amelioration of embryonic lethality”.
